Assay results from US20210386720A1, “METHODS OF TREATING CNS TUMORS WITH TESETAXEL” (Odonate Therapeutics, Inc., priority 2018, published 2021).

Assays:
[1] = Human plasma and CNS tissue binding by rapid equilibrium dialysis; format: in vitro ADME
[2] = In vivo tissue distribution of 14C-tesetaxel in monkeys; set-up: species or system monkey; conditions: for t1/2 / Cerebellum / Cerebrum / Plasma: 1 mg/kg; for Cerebellum / Cerebrum / Plasma: 14 days post-dose, radioactivity
Protocol: (§1) The in vivo tissue distribution of tesetaxel was previously investigated in mice treated with ^14C-tesetaxel at 4 mg/kg and sacrificed between 1-168 hours.^1 Two additional studies have been conducted in dogs and monkeys.
(§2) Dogs and monkeys were dosed at 0.6 mg/kg and 1 mg/kg of ^14C-tesetaxel, respectively, and tissue distribution was assessed at 336 hours post-dose (14 days). These doses equate to ˜44% of the 27 mg/m^2 dose in an ongoing Phase 3 clinical study. In vivo radioactivity concentrations in the cerebrum and cerebellum were compared to plasma concentrations and mean tumor GI50 (concentration resulting in 50% tumor growth inhibition) determined by MTT assay in 23 tumor cell lines.

taxane-resistant tumors = test: Nonclinical studies of activity against taxane-resistant tumors
[3] = Terminal plasma half-life in humans
[4] = In vivo tissue distribution of 14C-tesetaxel in dogs; set-up: species or system dog; conditions: for t1/2 / Cerebellum / Cerebrum / Plasma: 0.6 mg/kg; for Cerebellum / Cerebrum / Plasma: 14 days post-dose, radioactivity
Protocol: as §1, §2

[5] = monkey, single oral dose of 1 mg/kg, N=3
[6] = dog, single oral dose of 0.6 mg/kg, N=3

CC(=O)O[C@@]12CO[C@@H]1CC[C@@]1(C)[C@@H]3O[C@H](CN(C)C)O[C@@H]3C3=C(C)[C@@H](OC(=O)[C@H](O)[C@@H](NC(=O)OC(C)(C)C)c4ncccc4F)C[C@@](O)([C@@H](OC(=O)c4ccccc4)[C@@H]12)C3(C)C [Tesetaxel]
CNS tissue binding ([1]; CNS tissue): 98.9%
Human plasma binding ([1]; plasma): 98.2%
t1/2 ([2]; monkey, IV): 72 h
Cerebellum ([2]; monkey, IV): 18 ± 1.0 ng eq/g
Cerebrum ([2]; monkey, IV): 21 ± 2.0 ng eq/g
Plasma ([2]; monkey, IV): 1.0 ± 0.0 ng eq/mL
t1/2 ([2]; monkey, PO): 52.8 h
Cerebellum ([2]; monkey, PO): 4.4 ± 1.7 ng eq/g
Cerebrum ([2]; monkey, PO): 6.5 ± 3.8 ng eq/g
Plasma ([2]; monkey, PO): 0.9 ± 0.2 ng eq/mL
Cerebrum/Plasma ([2]; monkey, single oral dose of 1 mg/kg, 14 days after dosing): 7x
14C-Tesetaxel Radioactivity Concentration 14 Days after Dosing, Cerebrum (Mean ± SD) [2, 5]: 6.5 ± 3.8 ng eq./g or mL
14C-Tesetaxel Radioactivity Concentration 14 Days after Dosing, Plasma (Mean ± SD) [2, 5]: 0.9 ± 0.2 ng eq./g or mL
CNS penetration ([2]; monkeys, oral (PO) or intravenous (IV) administration): CNS penetration was observed
Activity against taxane-resistant tumors (taxane-resistant tumors): retain activity against taxane-resistant tumors
Terminal plasma half-life (t1/2) [3]: ~190 h
t1/2 ([4]; dog, IV): 72 h
Cerebellum ([4]; dog, IV): 7.8 ± 0.6 ng eq/g
Cerebrum ([4]; dog, IV): 16.8 ± 2.9 ng eq/g
Plasma ([4]; dog, IV): 0.5 ± 0.0 ng eq/mL
t1/2 ([4]; dog, PO): 96 h
Cerebellum ([4]; dog, PO): 6.1 ± 1.9 ng eq/g
Cerebrum ([4]; dog, PO): 10.9 ± 4.0 ng eq/g
Plasma ([4]; dog, PO): 0.9 ± 0.1 ng eq/mL
Cerebrum/Plasma ([4]; dog, single oral dose of 0.6 mg/kg, 14 days after dosing): 12x
14C-Tesetaxel Radioactivity Concentration 14 Days after Dosing, Cerebrum (Mean ± SD) [4, 6]: 10.9 ± 4.0 ng eq./g or mL
14C-Tesetaxel Radioactivity Concentration 14 Days after Dosing, Plasma (Mean ± SD) [4, 6]: 0.9 ± 0.1 ng eq./g or mL
CNS penetration ([4]; dogs, oral (PO) or intravenous (IV) administration): CNS penetration was observed
